Laboratory results reported in paper PMC11959756, “PepH3-modified nanocarriers for delivery of therapeutics across the blood-brain barrier” (Fluids and Barriers of the CNS, 2025).

Experiments:
[1] = cited from earlier work
From the text: There was a fast clearanc ...

[2] = test system: primary rat brain endothelial cells (RBEC); assay: Cellular uptake of PepH3 peptide in living RBECs (confocal microscopy, image analysis); assay type: cell-based; conditions: Quasar 570 labelled PepH3 100 nM, 37 °C, confocal image analysis normalized to nuclear intensity, n=10-25
Procedure: To visualize the cellular uptake of PepH3 peptide alone, the cells were cultured in Matrigel coated glass bottom culture dishes (diameter: 3.5 cm, Greiner Bio-One, Germany). Confluent monolayers were incubated with the peptide solution (100 nM) diluted in the culture medium of RBEC at 37 °C for 30 min, 5–24 h. For the staining of cell nuclei, Hoechst 33342 dye (1 µg/mL, 10 min) was used. After incubation the culture medium was removed and cells were washed with Ringer-HEPES buffer (118 mM NaCl, 4.8 mM KCl, 2.5 mM CaCl2, 1.2 mM MgSO4, 5.5 mM D-glucose, 20 mM HEPES, pH 7.4) supplemented with 1% PDS. For visualization of PepH3, living cells was imaged using Leica TCS SP5 confocal laser scanning microscope (Leica Microsystems, Germany).

[3] = test system: rat triple co-culture BBB model (RBEC, RPC, RAC); conditions: 10 nM, 30 min
[4] = test system: primary rat brain endothelial cells (RBEC); assay: Real-time impedance measurement of cellular toxicity on RBEC; assay type: cell-based; conditions: Quasar 570 labelled PepH3 1.875-120 µM, 24 h; impedance at 10 kHz; n=6-12
Procedure: Kinetics of the effect of PepH3 peptide, PepH3-tagged and non-tagged NPs on RBEC cells was monitored by impedance measurement at 10 kHz (RTCA-SP instrument; ACEA Biosciences, USA). Impedance measurement is a label-free, real time, non- invasive method, and correlates linearly with adherence, growth, number, and viability of cells. For background measurements 50 µL cell culture medium was added to the wells, then cells were seeded at a density of 6 × 10^3 cells/well to collagen type IV (100 µg/mL) and fibronectin (25 µg/mL) coated 96-well plates with integrated gold electrodes (E-plate 96, ACEA Biosciences, USA). Cells were cultured for 4 days and monitored every 5 min until the end of experiments. At the beginning of plateau phase of growth, cells were treated with PepH3 (1.875-120 µM) and PepH3-tagged and non-tagged NPs (0.1-3.0 mg/mL) for 24 h. Cell index was defined as Rn-Rb at each time point of measurement, where Rn is the cell-electrode impedance of the well when it contains cells and Rb is the background impedance of the well with the medium alone.

Q-AGILKRW-NH2 [PepH3, cationic 7-residue peptide (AGILKRW), BBB peptide shuttle derived from Dengue virus type-2 capsid protein; tested Quasar 570 labelled]
Accumulation in liver, lung and kidney in vivo ([1]; biodistribution profile compared to FC5): low accumulation
Brain uptake in vivo ([1]; radiolabeled PepH3 peptide derivatives, biodistribution): high brain uptake
Peptide internalization after 5 h compared to the 30 min group [2]: 1.9 fold
Peptide internalization after 24 h compared to the 30 min group [2]: 6 fold
Papp of PepH3 relative to transcellular BBB marker albumin (EBA) [3]: 71 times
Effect on impedance (viability) of RBEC cell layers [4]: good cell viability
